US20080004266A1, “Method for treating proliferative disorders associated with protooncogene products” (priority 2006, published 2008)
Values joined by “and” are separate entries in the source; they are usually repeats but may differ in a detail not shown here. Equal entries are not always repeated.

Test system: human malignant melanoma tumor cell line A-375
Experiment: A-375 (B-raf V600E) nude mouse xenograft model
Format: in vivo, human (xenograft in nude mouse)
Conditions: 50 mg/kg i.v. 3 times per week
From the text: The human malignant melanoma cell line, A-375 (ATCC #CRL-1619), was obtained from the American Type Culture Collection (ATCC; Manassas, Va., USA). Growth of this tumor cell line is dependent upon the expression of an activated form of the B-RAF serine/threonine kinase carrying a V600E mutation (K. P. Hoeflich et al., Cancer Res. 66:999-1006, 2006; D. J. Panka et al., Cancer Res. 66:1611-1619, 2006). This is the most frequent genetic abnormality observed in melanoma (N. Dhomen and R. Marais, Curr. Opin. Genet. Dev. 17:31-39, 2007). The cells were cultured in growth media prepared with Dulbecco's Modified Eagle Medium (high glucose), 10% fetal bovine serum (FBS), 1% 100× Penicillin-Streptomycin, 1% 10× sodium pyruvate and 1% 10×MEM non-essential amino acids. FBS was obtained from ATCC and all other reagents were obtained from Invitrogen Corp. (Carlsbad, Calif., USA). […] The supernatant was aspirated and the cell pellet was resuspended in 10 mL of growth media and the cell number determined using a hemocytometer. […]
Tumors were then permitted to develop in vivo until the majority reached 90-160 mm^3 in tumor volume, which required 5-6 weeks following implantation. […] Tumor volumes (V) were calculated by caliper measurement of the width (W), length (L) and thickness (T) of tumors using the following formula: V=0.5236×(L×W×T). […]

CC(C)c1cc(-c2nnc(O)n2-c2ccc3c(ccn3C)c2)c(O)cc1O [Compound 226, 3-(2,4-di-hydroxy-5-isopropyl-phenyl)-4-(1-methyl-indol-5-yl)-5-hydroxy-[1,2,4] triazole]
average bodyweight gain relative to the start of the study (day 60): 2.7% (+/−1.1 SEM) and 2.7% (+/1.1 SEM)
% T/C value (nude mice, 8 doses, day 63): 17%
